In brackets after ≈: the same amount, converted by molar mass. Where two headings read alike, the source gives them in different places.
Experiments:
[1] = system: normal skin fibroblast cells (BJ-1); experiment: MTT cytotoxicity assay, normal skin fibroblast BJ-1; assay type: cell-based; settings: Homo sapiens, 48 h, read-out: Growth Inhibition (%) BJ-1
[2] = system: MCF-7 (human breast cancer); experiment: MTT cytotoxicity assay, MCF-7; assay type: cell-based; settings: for inhibition at 100 µg/mL: MCF7, 100 µg/ml, 48 h, read-out: Growth Inhibition (%) MCF-7; for IC50: MCF7, 48 h post-treatment
[3] = DPPH free radical scavenging assay; assay type: biochemical; settings: concentration of 20µg/l, mean ± SD of three experiments
Method: Antioxidant activity of the newly synthesized 13a–i, 14a–i, 11a–c and 12a–c were assessed in terms of hydrogen-donating or radical-scavenging ability via the stable free radical 1,1-diphenyl-2-picrylhydrazyl (DPPH) using ascorbic acid as a reference at a concentration of […].
The free radical scavenging activity (RSA) was assessed spectrophotometically at 517 nm via decoloration of the solution of the DPPH (1,1-diphenyl-2-picrylhydrazyl) radical according to Brand-Williams et al. 1995 [32]. DPPH solution was prepared by dissolving of 20 mg of DPPH in one liter of dimethylsulphoxide (DMSO). A freshly prepared DPPH solution was used for the assay. Each of the tested compounds 11a–c, 12a–c, 13a–i, 14a–i and 15a,b were dissolved in DMSO (1mg/mL). A volume of […] of a DMSO stock solution of the test compounds was added to 2 mL of freshly prepared DPPH in DMSO solution. The mixtures were shaken in a vortex (2500 rpm) for 1 min and then left to stand for 15, 30, 45 and 60 min in the dark room. The absorbance was measured at 517 nm against blank using UV visible spectrophotometer 2401 PC (Shimadzu, Kyoto, Japan). Lower absorbance of the reaction mixture indicated higher free radical scavenging activity was analyzed from the graph plots of the inhibition percentage against the compound concentration. The experiment was carried out in triplicate and averaged. The scavenging activity was calculated according to the following formula:Scavenging ability (%) = (A517 of control - A517of sample / A 517 of control) ×100(1)

[4] = system: HCT-116 (human colon cancer); experiment: MTT cytotoxicity assay, HCT-116; assay type: cell-based; settings: for inhibition at 100 µg/mL / IC50: Homo sapiens; for inhibition at 100 µg/mL: HCT-116, 100 µg/ml, 48 h, read-out: Growth Inhibition (%) HCT-116; for IC50: HCT-116, 48 h
[5] = system: HepG-2 (human liver cancer); experiment: MTT cytotoxicity assay, HepG-2; assay type: cell-based; settings: for inhibition at 100 µg/mL: HepG2, 100 µg/ml, 48 h, read-out: Growth Inhibition (%) HepG-2; for IC50: HepG2, 48 h post-treatment
Method: MCF-7 (human breast cancer), HCT-116 (human colon cancer) and HepG2 (human liver cancer) cell lines were obtained from Karolinska Institute, Stockholm, Sweden. All cells were maintained in RPMI 1640 medium. The media were supplemented with 10% heat-inactivated fetal bovine serum plus 1% antibiotic-antimycoticmixture (10,000 U/mL of potassium penicillin, 10,000 μg/mL of streptomycin sulfate, 25 μg/mL of amphotericin B and 1% of L glutamine (Biowest, USA)). BJ-1 of a human skin fibroblast derived from normal foreskin was obtained from ATCC® CRL-2522™ as a frozen ampoule with about 1 × 10^6 cells per 1 ml volume. BJ-1 was maintained in MEM with 2 mM of L-glutamine and Earle’s salts medium.
Cell viability was studied using the MTT 3-(4,5-dimethylthiazol-2-yl)-2,5-diphenyl-tetrazolium bromide (Bio Basic Canada Inc. Toronto, Canada) assay [33]. The steps were executed in a sterile laminar air flow cabinet biosafety class II level (Baker, SG403INT; Sanford, ME, USA). All incubations were carried out at 37 °C in a 5% CO2 incubator under a humidified atmosphere of 95% (Sheldon, TC2323; Cornelius, OR, USA). Cells were seeded into 96-well microtiter plastic plates at a concentration of (10^4 cells/well) and allowed to adhere for 24 h. The medium was aspirated and then added to the cells with the test compounds 11a–c, 12a–c, 13a–i, 14a–i and 15a,b at a single dose of 100 μg/mL in DMSO. After incubation of the medium for 48 h, 40 μL of MTT salt (2.5 μg/mL) was added to each well and then incubated for an additional 4 h. To stop the reaction and dissolve any formed formazan crystals, 200 μL of 10% sodium dodecyl sulfate (SDS) were added to each well and incubated overnight at 37 °C. The amount of formazan product was measured at 595 nm with a reference wavelength of 690 nm as a background using a microplate reader (Bio-Rad Laboratories, model 3350, California, USA). For the untreated cells (negative control), the medium was added instead of the tested compounds. […] Dimethylsulfoxide (DMSO) was the vehicle used for dissolution of the testing compound, and its final concentration on the cells was less than 0.2%. At the same dilution, the solvent concentration was the same for all drugs and between the control and drug treatments.

[6] = 15 min, read-out: Scavenging Activity (%) on DPPH radicals at 15 min
[7] = 30 min, read-out: Scavenging Activity (%) on DPPH radicals at 30 min
[8] = 45 min, read-out: Scavenging Activity (%) on DPPH radicals at 45 min
[9] = 60 min, read-out: Scavenging Activity (%) on DPPH radicals at 60 min

| SMILES | inhibition at 100 µg/mL [1] [%] | inhibition at 100 µg/mL [2] [%] | IC50 [2] [µg/mL] | inhibition [3, 6] [%] | inhibition [3, 7] [%] | inhibition [3, 8] [%] | inhibition [3, 9] [%] | melting point [°C] | inhibition at 100 µg/mL [4] [%] | IC50 ([4]; 48 h post-treatment) [µg/mL] | IC50 HCT-116 ([4]; 48 h post-treatment) [µg/mL] | inhibition at 100 µg/mL [5] [%] | IC50 [5] [µg/mL] |
| --- | --- | --- | --- | --- | --- | --- | --- | --- | --- | --- | --- | --- | --- |
| O=C1Nc2ccccc2C12CC(c1cn(Cc3ccccc3)c3ccccc13)=NN2c1ccccc1 (stereo not shown) [Compound 14c, 5’-(N-Benzyl-1H-indol-3-yl)-2’-phenyl-2’,4’-dihydrospiro(indoline-3,3’-pyrazol)-2-one] | 13.6 | 92.3 | 32.5 (≈ 69.4 µM) | 14.8 ± 1.36 | 22.6 ± 1.79 | 26.3 ± 1.23 | 39.5 ± 1.61 | 96 to 98 | 91.8 | 40.5 (≈ 86.4 µM) | – | – | – |
| O=C1O[C@H]([C@@H](O)CO)C(O)=C1O [Ascorbic acid, ascorbic acid, reference compound] | – | – | – | 94.4 ± 1.74 | 97.5 ± 1.32 | 98.78 ± 0.94 | 99.67 ± 0.28 | – | – | – | – | – | – |
| COc1cccc2c1C(=O)c1c(O)c3c(c(O)c1C2=O)C[C@@](O)(C(=O)CO)C[C@@H]3O[C@H]1C[C@H](N)[C@H](O)[C@H](C)O1 [Doxorubicin, doxorubicin, reference compound] | 0 | 96.8 | 37.6 (≈ 69.2 µM) | – | – | – | – | – | 100 | 21.6 (≈ 39.7 µM) | 26.1 (≈ 48 µM) | 100 | 21.6 (≈ 39.7 µM) |
| O=C1Nc2ccccc2C12CC(c1c[nH]c3ccccc13)=NN2c1ccccc1 (stereo not shown) [Compound 14a, 5’-(1H-Indol-3-yl)-2’-phenyl-2’,4’-dihydrospiro(indoline-3,3’-pyrazol)-2-one] | 14.2 | 90.4 | 32.3 (≈ 85.4 µM) | 41.1 ± 2.05 | 51.5 ± 1.91 | 54 ± 2.06 | 59.2 ± 2.14 | 124 to 126 | 91.2 | 36.2 (≈ 95.7 µM) | – | – | – |
| O=C1Nc2ccccc2C12CC(c1cn(S(=O)(=O)c3ccccc3[N+](=O)[O-])c3ccccc13)=NN2c1ccccc1 (stereo not shown) [Compound 14i, 5’-(N-(2-Nitro-benzenesulfonyl)-1H-indol-3-yl)-2’-phenyl-2’,4’-dihydrospiro(indoline-3,3’-pyrazol)-2-one] | 78.6 | 52.3 | – | – | – | – | – | 152 to 154 | 35.1 | – | – | – | – |
| O=C(c1ccccc1)n1cc(C2=NNC3(C2)C(=O)Nc2ccccc23)c2ccccc21 (stereo not shown) [Compound 13d, 5’-(N-Benzoyl-1H-indol-3-yl)-2’,4’-dihydrospiro(indoline-3,3’-pyrazol)-2-one] | 7 | 96.4 | 25.4 (≈ 62.5 µM) | 19.3 ± 1.24 | 31.3 ± 1.81 | 25.9 ± 1.24 | 39.7 ± 1.99 | 307 to 309 | 94.6 | 26.9 (≈ 66.2 µM) | – | 82.7 | 60.9 (≈ 150 µM) |
| O=C(c1ccccc1)n1cc(C2=NN(c3ccccc3)C3(C2)C(=O)Nc2ccccc23)c2ccccc21 (stereo not shown) [Compound 14d, 5’-(N-Benzoyl-1H-indol-3-yl)-2’-phenyl-2’,4’-dihydrospiro(indoline-3,3’-pyrazol)-2-one] | 9.5 | 94 | 31.6 (≈ 65.5 µM) | 39.9 ± 1.75 | 41.8 ± 1.49 | 45 ± 1.37 | 55.4 ± 1.33 | 100 to 102 | 96.2 | 30.7 (≈ 63.6 µM) | – | – | – |

— article PMC7179167 (Molecules, 2020)
